Test results as given in PMC8151276, “An Integrated Approach toward NanoBRET Tracers for Analysis of GPCR Ligand Engagement” (Molecules, 2021).

Tests used:
SMO = molecular target: T1, SMO (Homo sapiens, UniProt Q99835); experiment: NanoBRET screen HiBiT-SMO in HEK293; assay type: binding
T1 construct: purchased Promega (in-house HiBiT-GPCR construct library, NanoBRET)
Method: (§1) Each tracer candidate was screened across the entire library of HiBiT-GPCR constructs using NanoBRET as the detection modality. As depicted in Figure 4A, the specificity of interactions was evaluated through decrease in BRET due to competitive displacement of a bound tracer by excess parental compound. Each tracer was analyzed for binding to each HiBiT-GPCR fusion in the absence and in the presence of competing parental compound. Briefly, HEK293 cells were transfected with HiBiT-GPCR constructs diluted into promoterless DNA to reduce expression and maximize translocation to the cell surface. Each tracer candidate was then screened at concentrations of 1 μM and 0.1 μM across cells expressing these fusions. Cells were treated for 1.5 h with tracer either alone or in the presence of 20 μM competing parental compound (i.e., control). BRET was measured upon addition of purified LgBiT and subsequent complementation with HiBiT genetically fused to a GPCR. The specificity of interactions was assessed through a decrease in BRET signal due to competitive displacement of the bound tracer. To further gauge the robustness of these interactions, the fold response over the control (i.e., BRETtracer/BRETcontrol) was calculated. We chose a 1.5-fold response, which translates to ≥7-fold signal over noise as the minimal threshold required to score an interaction as positive. […]. Below we highlight the screening results obtained for our exemplary fluorescent tracers based on Clozapine, Amitriptyline and AZD1283.
(§2) HiBiT-GPCR DNA constructs were diluted in 10 mM Tris pH 8 to a final concentration of 0.01 μg/μL, arrayed in 96-well plates and stored at −20 °C. For transfection, HEK293 cells were suspended in Opti-MEM (without phenol red) supplemented with 2% fetal bovine serum (Seradigm) and 100 units/mL penicillin–streptomycin (Gibco) at a final concentration of 220,000 cells/mL and dispensed into white 96-well plates at 90 μL/well. Subsequent transfections and screens were carried using an Agilent Bravo Automated Liquid Handling Platform. First, the 96-well HiBiT DNA arrays were diluted 25-fold in Opti-MEM (without serum or phenol red) to a final concentration of 0.0004 μg/μL and 20 μL of the diluted DNAs were transferred into new 96-well plates. Next, promoterless carrier DNA (1 μg/μL) was diluted 25-fold (0.04 μg/μL) and then dispensed into the diluted arrays at 20 μL/well. Following brief mixing, Viafect transfection reagent (Promega) diluted 16-fold into Opti-MEM was dispensed into the plates at 40 μL/well. After mixing by pipetting, plates were incubated for 10 min on the pipetting station deck. The DNA-transfection reagent complexes were then added to plates containing cells. To facilitate the screen, 10 μL of DNA-transfection reagent complexes were added in duplicates to the top 4 and bottom 4 rows, resulting in two identical 48-well arrays per plate. Plates with transfected cells were incubated for 18–20 h at 37 °C/5% CO2. A screen of each tracer across the entire library using two different concentrations requires duplicate plates of transfected cells. Depending on the number of tracers being screened, transfections can be scaled up using the same ratios. The next day, for each tracer, four 20× screening solutions in tracer dilution buffer (Promega) were prepared: two duplicates at final concentration of 20 μM and two duplicates at a final concentration of 2 μM. A competing unmodified compound was added to one of each duplicate at a final concentration of 400 μM. The four resulting solutions were diluted 4-fold in Opti-MEM without serum or phenol red to generate 5× solutions (5 µM and 0.5 µM tracer +/− 100 μM competing compound). To screen the library, a BioTek MultiFlo FX liquid dispenser was used to dispense 22.5 µL of tracer solution to the top 4 rows and 22.5 µL tracer + competing compound solution to the 4 bottom rows. Plates were briefly mixed on an orbital shaker and incubated for 1.5 h at room temperature. […]

F2RL1 = molecular target: T2, F2RL1 (Homo sapiens, UniProt P55085); experiment: NanoBRET screen HiBiT-F2RL1 in HEK293; assay type: binding
T2 construct: purchased Promega (in-house HiBiT-GPCR construct library, NanoBRET)
T2 sequence (P55085 26-397): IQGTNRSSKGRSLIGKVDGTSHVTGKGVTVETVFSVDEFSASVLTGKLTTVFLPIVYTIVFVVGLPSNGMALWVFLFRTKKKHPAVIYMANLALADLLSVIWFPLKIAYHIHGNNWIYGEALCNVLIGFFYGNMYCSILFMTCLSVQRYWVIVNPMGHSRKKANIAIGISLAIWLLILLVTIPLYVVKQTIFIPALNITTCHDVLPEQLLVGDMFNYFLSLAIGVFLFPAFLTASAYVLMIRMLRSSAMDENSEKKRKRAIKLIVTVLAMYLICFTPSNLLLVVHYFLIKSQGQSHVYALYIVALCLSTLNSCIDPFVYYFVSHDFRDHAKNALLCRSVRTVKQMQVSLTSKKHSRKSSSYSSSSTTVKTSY
Method: as §1, §2

T1 sequence (Q99835 28-787): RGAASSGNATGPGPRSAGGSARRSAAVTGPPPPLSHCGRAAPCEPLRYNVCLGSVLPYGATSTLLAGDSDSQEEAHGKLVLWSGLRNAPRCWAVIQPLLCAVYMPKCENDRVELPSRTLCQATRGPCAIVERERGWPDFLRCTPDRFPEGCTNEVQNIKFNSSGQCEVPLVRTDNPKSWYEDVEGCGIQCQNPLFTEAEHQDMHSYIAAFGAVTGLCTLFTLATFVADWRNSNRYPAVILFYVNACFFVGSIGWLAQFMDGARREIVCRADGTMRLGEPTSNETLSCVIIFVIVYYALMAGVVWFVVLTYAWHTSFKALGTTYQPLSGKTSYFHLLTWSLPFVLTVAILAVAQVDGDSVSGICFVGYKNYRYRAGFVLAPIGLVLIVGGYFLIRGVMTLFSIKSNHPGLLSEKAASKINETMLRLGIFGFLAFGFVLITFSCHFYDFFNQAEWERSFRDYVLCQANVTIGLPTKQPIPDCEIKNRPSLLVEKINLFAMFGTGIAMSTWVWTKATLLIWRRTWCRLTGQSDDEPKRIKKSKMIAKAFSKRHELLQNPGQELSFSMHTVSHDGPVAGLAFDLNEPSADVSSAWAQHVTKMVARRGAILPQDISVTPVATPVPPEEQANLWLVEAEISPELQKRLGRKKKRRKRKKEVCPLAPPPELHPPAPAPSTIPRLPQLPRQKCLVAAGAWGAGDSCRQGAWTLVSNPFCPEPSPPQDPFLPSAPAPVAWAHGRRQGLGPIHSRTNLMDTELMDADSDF

SMILES | NanoBRET Fold Response (SMO; SMO, tracer 0.1μM) | NanoBRET Fold Response (SMO; SMO, tracer 1μM) | NanoBRET Fold Response (F2RL1; F2RL1, tracer 0.1μM) | NanoBRET Fold Response (F2RL1; F2RL1, tracer 1μM) | also measured
COc1ccc2c(n1)c(CCNC(C)=O)cn2CCNC(=O)CCc1ccc2n1[B-](F)(F)[N+]1=C(c3ccc[nH]3)C=CC1=C2 [Azamelatonin-1-NB590] | – | – | – | – | NanoBRET Fold Response (SMO; 0.1μM tracer): 0.82; NanoBRET Fold Response (SMO; 1μM tracer): 1.37; NanoBRET Fold Response (F2RL1; 0.1μM tracer): 1.21; NanoBRET Fold Response (F2RL1; 1μM tracer): 0.93
CC(C)N(CC[C@H](c1ccccc1)c1cc(CCNC(=O)c2ccc(CNC(=O)CCc3ccc4n3[B-](F)(F)[N+]3=C(c5ccc[nH]5)C=CC3=C4)cc2)ccc1O)C(C)C [Tolterodine-BZ-NB590] | 0.93 | 0.94 | 0.97 | 0.98 | –
O=C(CCc1ccc2n1[B-](F)(F)[N+]1=C(c3ccc[nH]3)C=CC1=C2)NCCOCCOCCNC(=O)OCCOCCN1CCN(C2=Nc3ccccc3Sc3ccccc32)CC1 [Quetiapine-a-2-NB590] | 0.94 | 0.96 | 0.88 | 0.71 | –
Cc1cc2c(s1)Nc1ccccc1N=C2N1CCN(CCCNC(=O)CCOCCOCCOCCOCCNC(=O)CCc2ccc3n2[B-](F)(F)[N+]2=C(c4ccc[nH]4)C=CC2=C3)CC1 [Olanzapine-a-2-NB590] | 1.12 | 0.82 | 1.04 | 0.96 | –
O=C(CCc1ccc2n1[B-](F)(F)[N+]1=C(c3ccc[nH]3)C=CC1=C2)NCc1ccc(C(=O)NCCOCCOCCNCC(O)COc2cccc3ccccc23)cc1 (centres unmarked) [Propranolol-3-NB590] | – | – | – | – | NanoBRET Fold Response (SMO; SMO, 0.1μM): 1.16; NanoBRET Fold Response (SMO; SMO, 1μM): 1.07; NanoBRET Fold Response (F2RL1; F2RL1, 0.1μM): 1.05; NanoBRET Fold Response (F2RL1; F2RL1, 1μM): 1.07
CN1CCN(C2=Nc3cc(Cl)ccc3N(CC(=O)NCCOCCOCCOCCOCCNC(=O)CCc3ccc4n3[B-](F)(F)[N+]3=C(c5ccc[nH]5)C=CC3=C4)c3ccccc32)CC1 [Clozapine-c-2-NB590] | – | – | – | – | NanoBRET Fold Response (SMO; SMO, 0.1μM tracer): 0.97; NanoBRET Fold Response (SMO; SMO, 1μM tracer): 1.09; NanoBRET Fold Response (F2RL1; F2RL1, 0.1μM tracer): 0.97; NanoBRET Fold Response (F2RL1; F2RL1, 1μM tracer): 1.00
O=C(CCc1ccc2n1[B-](F)(F)[N+]1=C(c3ccc[nH]3)C=CC1=C2)NCc1ccc(C(=O)NCCOCCC(=O)N[C@@H]2CC[C@@]3(O)[C@H]4Cc5ccc(O)c6c5[C@@]3(CCN4CC3CC3)[C@H]2O6)cc1 [Naltrexone-3-NB590] | 0.58 | 0.55 | 0.79 | 0.91 | –
CC(C)N(CC[C@H](c1ccccc1)c1cc(CCNC(=O)CCOCCOCCOCCOCCNC(=O)CCc2ccc3n2[B-](F)(F)[N+]2=C(c4ccc[nH]4)C=CC2=C3)ccc1O)C(C)C [Tolterodine-2-NB590] | 0.73 | 0.83 | 1.07 | 1.03 | –
Cc1nc2n(c(=O)c1CCN1CCC(c3noc4cc(F)ccc34)CC1)CCCC2OC(=O)NCCOCCOCCOCCOCCNC(=O)CCc1ccc2n1[B-](F)(F)[N+]1=C(c3ccc[nH]3)C=CC1=C2 (centres unmarked) [Risperidone-2-NB590] | 0.86 | 1.00 | 1.00 | 0.94 | –
O=C(CCOCCOCCOCCOCCNC(=O)CCc1ccc2n1[B-](F)(F)[N+]1=C(c3ccc[nH]3)C=CC1=C2)NCCCN1CCN(C2=Nc3cc(Cl)ccc3Nc3ccccc32)CC1 [Clozapine-a-2-NB590] | – | – | – | – | NanoBRET Fold Response (SMO; SMO, 0.1μM tracer): 1.00; NanoBRET Fold Response (SMO; SMO, 1μM tracer): 0.64; NanoBRET Fold Response (F2RL1; F2RL1, 0.1μM tracer): 0.89; NanoBRET Fold Response (F2RL1; F2RL1, 1μM tracer): 1.16
COc1ccc2[nH]c(-c3ccc(CNC(=O)CCOCCOCCOCCOCCNC(=O)CCc4ccc5n4[B-](F)(F)[N+]4=C(c6ccc[nH]6)C=CC4=C5)cc3)c(CCNC(C)=O)c2n1 [AzomelatoninICO9-2-NB590] | – | – | – | – | NanoBRET Fold Response (SMO; 0.1μM tracer): 0.86; NanoBRET Fold Response (SMO; 1μM tracer): 1.25; NanoBRET Fold Response (F2RL1; 0.1μM tracer): 0.95; NanoBRET Fold Response (F2RL1; 1μM tracer): 0.83
CN1CCN(C2=Nc3cc(Cl)ccc3Nc3ccc(CNC(=O)CCOCCOCCOCCOCCNC(=O)CCc4ccc5n4[B-](F)(F)[N+]4=C(c6ccc[nH]6)C=CC4=C5)cc32)CC1 [Clozapine-b-2-NB590] | – | – | – | – | NanoBRET Fold Response (SMO; SMO, 0.1μM tracer): 1.13; NanoBRET Fold Response (SMO; SMO, 1μM tracer): 0.80; NanoBRET Fold Response (F2RL1; F2RL1, 0.1μM tracer): 1.00; NanoBRET Fold Response (F2RL1; F2RL1, 1μM tracer): 1.06
COc1ccccc1N1CCN(CCCCN2C(=O)c3ccc(CNC(=O)CCOCCNC(=O)c4ccc(CNC(=O)CCc5ccc6n5[B-](F)(F)[N+]5=C(c7ccc[nH]7)C=CC5=C6)cc4)cc3C2=O)CC1 [NAN-190-3-NB590] | 0.88 | 0.97 | 0.96 | 1.08 | –
N#CN=C(NCCCOc1cccc(CN2CCCCC2)c1)NCCNC(=O)CCOCCOCCOCCOCCNC(=O)CCc1ccc2n1[B-](F)(F)[N+]1=C(c3ccc[nH]3)C=CC1=C2 [Aminopotentidine-2-NB590] | 1.03 | 0.91 | 1.03 | 0.99 | –
CN(C)CCC=C1c2ccccc2CCc2ccc(C(=O)NCCNC(=O)CCOCCOCCOCCOCCNC(=O)CCc3ccc4n3[B-](F)(F)[N+]3=C(c5ccc[nH]5)C=CC3=C4)cc21 [Amitriptyline-b-2-NB590] | – | – | – | – | NanoBRET Fold Response (SMO; tracer at 1μM): 0.97; NanoBRET Fold Response (F2RL1; tracer at 0.1μM, listed as amitriptyline-b-2-NB590): 1.10; NanoBRET Fold Response (F2RL1; tracer at 1μM, listed as amitriptyline-b-2-NB590): 1.00
COc1ccccc1N1CCN(CCCCN2C(=O)c3ccc(CNC(=O)CCOCCOCCOCCOCCNC(=O)CCc4ccc5n4[B-](F)(F)[N+]4=C(c6ccc[nH]6)C=CC4=C5)cc3C2=O)CC1 [NAN-190-2-NB590] | 1.11 | 1.11 | 0.96 | 0.98 | –
CN(C)CCC=C1c2ccccc2CCc2ccc(C(=O)NCCNC(=O)CCOCCOCCOCCOCCNC(=O)CCc3ccc4n3[B-](F)(F)[N+]3=C(c5ccc[nH]5)C=CC3=C4)cc21 [Amitriptyline-a-2-NB590] | – | – | – | – | NanoBRET Fold Response (F2RL1; tracer at 0.1μM): 1.01; NanoBRET Fold Response (F2RL1; tracer at 1μM): 1.07
